# Laboratory results taken from publication PMC4990478 (Nature chemical biology, 2016).
# Where a SMILES comes first, the peptide text is derived from it. [ ]: non-standard residue; d: D form. The star is where a group is joined. ξ: configuration not given here. Aoe(9ξ) = N[C@@H](CCCCCC(=O)C1CO1)C(=O)O; AMC = Cc1cc(=O)oc2cc(N*)ccc12; dPip = O=C(O)[C@H]1CCCCN1
# Tests used:
# HD1-A (a class II HDAC) = settings: cited from earlier work
# [1] = system: maize HD1-B (a class I HDAC); settings: cited from earlier work
# zCD1 = target: T1, zCD1 (Danio rerio, UniProt F8W4B7); test: Steady-state kinetics, fluorogenic substrates; format: biochemical
# T1 sequence (F8W4B7 60-419): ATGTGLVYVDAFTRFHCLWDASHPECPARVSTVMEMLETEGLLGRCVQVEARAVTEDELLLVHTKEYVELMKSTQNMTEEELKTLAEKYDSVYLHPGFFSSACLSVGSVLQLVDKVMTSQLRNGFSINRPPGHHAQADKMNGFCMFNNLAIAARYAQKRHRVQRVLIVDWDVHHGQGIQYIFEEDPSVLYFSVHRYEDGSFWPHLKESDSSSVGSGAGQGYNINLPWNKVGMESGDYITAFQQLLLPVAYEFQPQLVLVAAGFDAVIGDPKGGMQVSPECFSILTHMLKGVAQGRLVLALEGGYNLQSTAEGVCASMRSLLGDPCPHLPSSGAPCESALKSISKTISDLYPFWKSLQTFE
# HDAC6 = settings: cited from earlier work
# HDAC1 = settings: cited from earlier work
compound,measurement,setting,value
"C[C@@H]1NC(=O)[C@H]2CCCN2C(=O)[C@H](CCCCCC(=O)[C@@H]2CO2)NC(=O)[C@@H](C)NC1=O [HC toxin, cyclo-(L-Ala-D-Ala-L-Aoe-D-Pro)]",mode of inhibition,HD1-A (a class II HDAC),reversible inhibition
same,mode of inhibition,[1],irreversible inhibition
"CC(=O)NCCCC[C@H](NC(=O)CNC(=O)[C@H](CCCNC(=N)N)NC(C)=O)C(=O)Nc1ccc2c(C)cc(=O)oc2c1 [Substrate 8, Ac-Arg-Gly-Lys(Ac)-AMC] (Ac-Arg-Gly-Lys(Ac)-{AMC})","kcat/KM reduced, zCD1 compared with zCD2",zCD1,7 fold
O=C(CCCCC[C@@H]1NC(=O)[C@H]2CCCCN2C(=O)[C@H](Cc2ccccc2)NC(=O)[C@H](Cc2ccccc2)NC1=O)C1CO1 (some centres unmarked) [trapoxin] (cyclo(FF[dPip][Aoe(9ξ)])),mode of inhibition,HDAC6,reversible inhibitor
same,mode of inhibition,HDAC1,potent irreversible inhibitor
